This data set is described as follows: Pharmacokinetic experiment on pulmonarily administered native motilin and motilin derivative compounds in rats (RIA). The class given is in vivo, rat. The settings on record: pulmonary administration; for Cmax / AUC: male, SD, plasma, inhaled or intranasal, 25 ug/animal; for Cmax / AUC / BA: 25 μg/rat; for AUC: trapezoidal method; for BA: relative to AUC of intravenous native motilin. The method, then:
As test animals, 7- to 10-wk old male SD rats (purchased from CHARLES RIVER LABORATORIES JAPAN, INC.) that consisted of 3 rats per a group were subjected to the following experiment. Native motilin or motilin derivative compounds were dissolved in an aqueous solution of 0.1 N acetic acid to prepare a solution at a concentration of 1 mg/mL and 25 μL of the solution was administered into the polyethylene tube through the trachea by means of an intratracheal liquid spraying device (MicroSprayer; product of Penn Century). […] In the measurement, the respective derivatives were used as standard substances to construct calibration curves for determining the plasma levels.
Using these values, bioavailability (BA (%)) was calculated by the following equation: BA(%)=[(AUC/Dose)/(AUC(motilin—iv)/Dose(motilin—iv))]×100 • AUC: AUC (ng·min/mL) after pulmonary administration • Dose: dose (μg/kg) in pulmonary administration • AUC (motilin_iv): AUC (ng·min/mL) after intravenous administration of native motilin • Dose (motilin_iv): dose (μg/kg) in intravenous administration of native motilin.

Starred links: 1 amine or outer side, 2 acyl side, 3 side chain; linkers in the order of their positions; H or OH if unused. Non-standard residues stand in square brackets, D forms with d. Residues, ends and D or L forms follow the SMILES beside them. No end group written: not given here. X1 = CC(C)[C@@H](C(=O)[*:2])N(C[C@@H](N)Cc1ccccc1)[*:1]; β3hPhg = O=C(C[C@@H](N[*:1])c1ccccc1)[*:2]; Sar = CNCC(=O)O

Usually Cmax stands for the highest concentration seen after dosing. Broadly, the AUC is the area under the concentration-time curve, a measure of exposure. `CC[C@H](C)[C@H](NC(=O)[C@@H]1CCCN1C(=O)[C@@H](NC[C@@H](N)Cc1ccccc1)C(C)C)C(=O)N[C@@H](Cc1ccccc1)C(=O)N[C@H](C(=O)N[C@@H](Cc1ccc(O)cc1)C(=O)NCC(=O)N[C@@H](CCC(=O)O)C(=O)N[C@@H](CC(C)C)C(=O)N[C@@H](CCC(N)=O)C(=O)N[C@@H](CCCNC(=N)N)C(=O)N[C@@H](CCSC)C(=O)N[C@@H](CCC(N)=O)C(=O)N[C@@H](CCC(=O)O)C(=O)N[C@@H](CCCCN)C(=O)N[C@@H](CCC(=O)O)C(=O)N[C@@H](CCCNC(=N)N)C(=O)N[C@@H](CC(N)=O)C(=O)N[C@@H](CCCCN)C(=O)NCC(=O)N[C@@H](CCC(N)=O)C(=O)O)[C@@H](C)O` [Comparative compound 2, reference compound] (H-[X1]PIFTYGELQRMQEKERNKGQ-OH; N-terminus and C-terminus assumed) had a Cmax of 9.3 ± 3.09 ng/mL, an area under the curve (AUC) of 1.98 ng·h/mL and a BA of 4.1 ± 1.6%. The molecule also showed a BA (listed as comparative compound 2) of 4.1%.

In the case of `CC[C@H](C)[C@H](NC(=O)[C@@H]1CCCN1C(=O)[C@@H](NC(=O)[C@@H](N)Cc1ccccc1)C(C)C)C(=O)N[C@@H](Cc1ccccc1)C(=O)N[C@H](C(=O)N[C@@H](Cc1ccc(O)cc1)C(=O)NCC(=O)N[C@@H](CCC(=O)O)C(=O)N[C@@H](CC(C)C)C(=O)N[C@@H](CCC(N)=O)C(=O)N[C@@H](CCCNC(=N)N)C(=O)N[C@@H](CCSC)C(=O)N[C@@H](CCC(N)=O)C(=O)N[C@@H](CCC(=O)O)C(=O)N[C@@H](CCCCN)C(=O)N[C@@H](CCC(=O)O)C(=O)N[C@@H](CCCNC(=N)N)C(=O)N[C@@H](CC(N)=O)C(=O)N[C@@H](CCCCN)C(=O)N1CCC[C@H]1C(=O)N[C@@H](CCC(N)=O)C(=O)O)[C@@H](C)O` [Compound 1], the Cmax was found to be 9.09 ± 0.53 ng/mL, the AUC was 1.99 ng·h/mL and the BA turned out to be 5.3 ± 0.6%. The molecule also yielded a BA (listed as compound 1) of 5.3%.

In turn, `CC[C@H](C)[C@H](NC(=O)[C@@H]1CCCN1C(=O)[C@@H](NC(=O)C[C@@H](N)c1ccccc1)C(C)C)C(=O)N[C@@H](Cc1ccccc1)C(=O)N[C@H](C(=O)N[C@@H](Cc1ccc(O)cc1)C(=O)NCC(=O)N[C@@H](CCC(=O)O)C(=O)N[C@@H](CC(C)C)C(=O)N[C@@H](CCC(N)=O)C(=O)N[C@@H](CCCNC(=N)N)C(=O)N[C@@H](CC(C)C)C(=O)N[C@@H](CCC(N)=O)C(=O)N[C@@H](CCC(=O)O)C(=O)N[C@@H](CCCCN)C(=O)N[C@@H](CCC(=O)O)C(=O)N[C@@H](CCCNC(=N)N)C(=O)N1CCC[C@H]1C(=O)N[C@@H](CCCCN)C(=O)N1CCC[C@H]1C(=O)N[C@@H](CCC(N)=O)C(=O)O)[C@@H](C)O` [Compound 4] (β3hPhg-VPIFTYGELQRLQEKERPKPQ-OH; N-terminus and C-terminus assumed) had a Cmax of 14.6 ± 8.23 ng/mL, an area under the curve (AUC) of 4.69 ng·h/mL and a BA of 11.0 ± 7.2%.

Turning to `CC[C@H](C)[C@H](NC(=O)CN(C)C(=O)[C@@H](NC(=O)C[C@@H](N)c1ccccc1)C(C)C)C(=O)N[C@@H](Cc1ccccc1)C(=O)N[C@H](C(=O)N[C@@H](Cc1ccc(O)cc1)C(=O)NCC(=O)N[C@@H](CCC(=O)O)C(=O)N[C@@H](CC(C)C)C(=O)N[C@@H](CCC(N)=O)C(=O)N[C@@H](CCCNC(=N)N)C(=O)N[C@@H](CC(C)C)C(=O)N[C@@H](CCC(N)=O)C(=O)N[C@@H](CCC(=O)O)C(=O)N[C@@H](CCCCN)C(=O)N[C@@H](CCC(=O)O)C(=O)N[C@@H](CCCNC(=N)N)C(=O)N1CCC[C@H]1C(=O)N[C@@H](CCCCN)C(=O)N1CCC[C@H]1C(=O)N[C@@H](CCC(N)=O)C(=O)O)[C@@H](C)O` [Compound 5, Phg(C#CH2) Val Sar Ile Phe Thr Tyr Gly Glu Leu Gln Arg Leu Gln Glu Lys Glu Arg Pro Lys Pro Gln] (β3hPhg-V[Sar]IFTYGELQRLQEKERPKPQ-OH; N-terminus and C-terminus assumed), the highest concentration (Cmax) was determined as 14.8 ± 7.78 ng/mL, the AUC was 2.92 ng·h/mL and the BA was found to be 5.7 ± 2.9%.

With `CC[C@H](C)[C@H](NC(=O)[C@@H]1CCCN1C(=O)[C@@H](NC[C@@H](N)Cc1ccccc1)C(C)C)C(=O)N[C@@H](Cc1ccccc1)C(=O)N[C@H](C(=O)N[C@@H](Cc1ccc(O)cc1)C(=O)NCC(=O)N[C@@H](CCC(=O)O)C(=O)N[C@@H](CC(C)C)C(=O)N[C@@H](CCC(N)=O)C(=O)N[C@@H](CCCNC(=N)N)C(=O)N[C@@H](CCSC)C(=O)N[C@@H](CCC(N)=O)C(=O)N[C@@H](CCC(=O)O)C(=O)N[C@@H](CCCCN)C(=O)N[C@@H](CCC(=O)O)C(=O)N[C@@H](CCCNC(=N)N)C(=O)N[C@@H](CC(N)=O)C(=O)N[C@@H](CCCCN)C(=O)N1CCC[C@H]1C(=O)N[C@@H](CCC(N)=O)C(=O)O)[C@@H](C)O` [Compound 6] (H-[X1]PIFTYGELQRMQEKERNKPQ-OH; N-terminus and C-terminus assumed), the Cmax was determined as 34.2 ± 20 ng/mL, the area under the curve (AUC) is 6.34 ng·h/mL and the BA is 11.5 ± 6.1%. Also, for the setting “listed as compound 6”, the BA stood at 11.5%. The “profile of plasma concentration compared with native motilin” value (FIG. 3) is “high peak levels”.

Molecule `CC[C@H](C)[C@H](NC(=O)[C@@H]1CCCN1C(=O)[C@@H](NC[C@@H](N)Cc1ccccc1)C(C)C)C(=O)N[C@@H](Cc1ccccc1)C(=O)N[C@H](C(=O)N[C@@H](Cc1ccc(O)cc1)C(=O)NCC(=O)N[C@@H](CCC(=O)O)C(=O)N[C@@H](CC(C)C)C(=O)N[C@@H](CCC(N)=O)C(=O)N[C@@H](CCCNC(=N)N)C(=O)N[C@@H](CC(C)C)C(=O)N[C@@H](CCC(N)=O)C(=O)N[C@@H](CCC(=O)O)C(=O)N[C@@H](CCCCN)C(=O)N[C@@H](CCC(=O)O)C(=O)N[C@@H](CCCNC(=N)N)C(=O)N[C@@H](CC(N)=O)C(=O)N[C@@H](CCCCN)C(=O)N1CCC[C@H]1C(=O)N[C@@H](CCC(N)=O)C(=O)O)[C@@H](C)O` [Compound 7] (H-[X1]PIFTYGELQRLQEKERNKPQ-OH; N-terminus and C-terminus assumed) had a Cmax of 17.2 ± 7.18 ng/mL, an AUC of 3.24 ng·h/mL and a BA of 6.4 ± 1.3%.

Molecule `CC[C@H](C)[C@H](NC(=O)[C@@H]1CCCN1C(=O)[C@@H](NC[C@@H](N)Cc1ccccc1)C(C)C)C(=O)N[C@@H](Cc1ccccc1)C(=O)N[C@H](C(=O)N[C@@H](Cc1ccc(O)cc1)C(=O)NCC(=O)N[C@@H](CC(=O)O)C(=O)N[C@@H](CC(C)C)C(=O)N[C@@H](CCC(N)=O)C(=O)N[C@@H](CCCNC(=N)N)C(=O)N[C@@H](CC(C)C)C(=O)N[C@@H](CCC(N)=O)C(=O)N[C@@H](CCC(=O)O)C(=O)N[C@@H](CCCCN)C(=O)N[C@@H](CCC(=O)O)C(=O)N[C@@H](CCCNC(=N)N)C(=O)N1CCC[C@H]1C(=O)N[C@@H](CCCCN)C(=O)N1CCC[C@H]1C(=O)N[C@@H](CCC(N)=O)C(=O)O)[C@@H](C)O` [Compound 12] (H-[X1]PIFTYGDLQRLQEKERPKPQ-OH; N-terminus and C-terminus assumed) gave a Cmax of 30.1 ± 15.8 ng/mL, an area under the curve (AUC) of 9.42 ng·h/mL and a BA of 18.7 ± 10.7%.

`CC[C@H](C)[C@H](NC(=O)[C@@H]1CCCN1C(=O)[C@@H](NC[C@@H](N)Cc1ccccc1)C(C)C)C(=O)N[C@@H](Cc1ccccc1)C(=O)N[C@H](C(=O)N[C@@H](Cc1ccc(O)cc1)C(=O)NCC(=O)N[C@@H](CC(=O)O)C(=O)N[C@@H](CC(C)C)C(=O)N[C@@H](CCC(N)=O)C(=O)N[C@@H](CCCNC(=N)N)C(=O)N[C@@H](CCSC)C(=O)N[C@@H](CCC(N)=O)C(=O)N[C@@H](CCC(=O)O)C(=O)N[C@@H](CCCCN)C(=O)N[C@@H](CCC(=O)O)C(=O)N[C@@H](CCCNC(=N)N)C(=O)N1CCC[C@H]1C(=O)N[C@@H](CCCCN)C(=O)N1CCC[C@H]1C(=O)N[C@@H](CCC(N)=O)C(=O)O)[C@@H](C)O` [Compound 13] (H-[X1]PIFTYGDLQRMQEKERPKPQ-OH; N-terminus and C-terminus assumed): the maximum concentration (Cmax) is 18.4 ± 10.4 ng/mL, the exposure (AUC) was 3.09 ng·h/mL and the BA was found to be 5.6 ± 1.5%.

In turn, FVPIFTYGDLQRLQEKERPKPQ [Compound 3] gave a Cmax of 24.6 ± 5.8 ng/mL, an area under the curve (AUC) of 4.7 ng·h/mL and a BA of 9.5 ± 0.9%.

In turn, “FVPIFTYGELQRLQEKERNKGQ [Comparative compound 1, reference compound]” had a Cmax of 4.53 ± 2.86 ng/mL, an AUC of 1.05 ng·h/mL and a BA of 2.8 ± 1.6%. The molecule also returned a BA (listed as comparative compound 1) of 2.8%.

On to FVPIFTYGELQRLQEKERPKPQ [Compound 9], for which the Cmax was found to be 8.99 ± 5.99 ng/mL, the AUC is 1.93 ng·h/mL and the BA is recorded as 5.7 ± 3.1%.

The values are drawn from patent US8710184B2, “Motilin-like peptide compound having transmucosal absorbability imparted thereto” (Daiichi Sankyo Company, Limited, priority 2009, dated 2014).
